Experiment: xn = mol fraction of the nth substance listed
Settings: 100 kPa, Liquid; for speed of sound: Frequency=5 MHz, Pulse-echo method; for mass density: Vibrating tube method

OCCOCCOCCO [triethylene glycol] + O
Settings	mass density [kg/m3]	speed of sound [m/s]
293.15 K, x1 = 0.0107	1010.53	–
293.15 K, x1 = 0.02047	1020.73	–
293.15 K, x1 = 0.03972	1038.14	–
293.15 K, x1 = 0.04979	1045.97	–
293.15 K, x1 = 0.06996	1059.39	–
293.15 K, x1 = 0.09424	1072.14	–
293.15 K, x1 = 0.1481	1091	–
293.15 K, x1 = 0.1752	–	1744.6
293.15 K, x1 = 0.1869	–	1743.5
293.15 K, x1 = 0.2006	1101.53	–
293.15 K, x1 = 0.2052	–	1740.7
293.15 K, x1 = 0.2239	–	1736.8
293.15 K, x1 = 0.2502	1107.61	–
293.15 K, x1 = 0.2513	–	1730.1
293.15 K, x1 = 0.2755	–	1723.7
293.15 K, x1 = 0.2988	1111.51	–
293.15 K, x1 = 0.3023	–	1716.7
293.15 K, x1 = 0.3492	1114.3	–
293.15 K, x1 = 0.3754	–	1699
293.15 K, x1 = 0.3925	1116.06	–
293.15 K, x1 = 0.4338	–	1686.6
293.15 K, x1 = 0.4502	1117.81	–
293.15 K, x1 = 0.4877	1118.7	–
293.15 K, x1 = 0.5004	1118.97	–
293.15 K, x1 = 0.5151	–	1671.3
293.15 K, x1 = 0.5739	1120.23	–
293.15 K, x1 = 0.58	1120.32	–
293.15 K, x1 = 0.6233	–	1654.9
293.15 K, x1 = 0.6465	1121.14	–
293.15 K, x1 = 0.651	1121.19	–
293.15 K, x1 = 0.7008	1121.67	–
293.15 K, x1 = 0.7471	1122.06	–
293.15 K, x1 = 0.7677	1122.21	–
293.15 K, x1 = 0.7815	–	1641.2
293.15 K, x1 = 0.82	1122.57	–
293.15 K, x1 = 0.8623	1122.83	–
293.15 K, x1 = 0.8792	1122.93	–
293.15 K, x1 = 0.8924	–	1634.7
293.15 K, x1 = 0.8975	1123.03	–
293.15 K, x1 = 0.9203	1123.15	–
293.15 K, x1 = 0.9514	1123.32	–
293.15 K, x1 = 0.9634	–	1630.2
293.15 K, x1 = 0.9692	1123.41	–
293.15 K, x1 = 1	1123.56	1629
298.15 K, x1 = 0.000655	–	1499.7
298.15 K, x1 = 0.003093	–	1510.2
298.15 K, x1 = 0.008719	–	1533.1
298.15 K, x1 = 0.0107	1009.15	–
298.15 K, x1 = 0.01513	–	1557
298.15 K, x1 = 0.02047	1019.12	–
298.15 K, x1 = 0.02053	–	1575.4
298.15 K, x1 = 0.0297	–	1603.3
298.15 K, x1 = 0.03817	–	1625.7
298.15 K, x1 = 0.03972	1036.1	–
298.15 K, x1 = 0.04526	–	1642.1
298.15 K, x1 = 0.04979	1043.71	–
298.15 K, x1 = 0.05106	–	1654.1
298.15 K, x1 = 0.05839	–	1667.6
298.15 K, x1 = 0.0674	–	1681.9
298.15 K, x1 = 0.06996	1056.75	–
298.15 K, x1 = 0.0766	–	1694.1
298.15 K, x1 = 0.08268	–	1701
298.15 K, x1 = 0.08879	–	1707
298.15 K, x1 = 0.09424	1069.14	–
298.15 K, x1 = 0.09568	–	1712.9
298.15 K, x1 = 0.1024	–	1717.7
298.15 K, x1 = 0.1041	–	1718.8
298.15 K, x1 = 0.1099	–	1722.2
298.15 K, x1 = 0.1152	–	1724.8
298.15 K, x1 = 0.1205	–	1727
298.15 K, x1 = 0.127	–	1729.3
298.15 K, x1 = 0.1291	–	1729.9
298.15 K, x1 = 0.1383	–	1731.9
298.15 K, x1 = 0.1474	–	1733.1
298.15 K, x1 = 0.1481	1087.52	–
298.15 K, x1 = 0.1587	–	1733.7
298.15 K, x1 = 0.1675	–	1733.4
298.15 K, x1 = 0.1757	–	1732.8
298.15 K, x1 = 0.1834	–	1731.9
298.15 K, x1 = 0.2006	1097.87	–
298.15 K, x1 = 0.2026	–	1728.7
298.15 K, x1 = 0.221	–	1724.7
298.15 K, x1 = 0.2393	–	1720.1
298.15 K, x1 = 0.2502	1103.88	–
298.15 K, x1 = 0.2566	–	1715.5
298.15 K, x1 = 0.2906	–	1706.3
298.15 K, x1 = 0.2988	1107.76	–
298.15 K, x1 = 0.3492	1110.52	–
298.15 K, x1 = 0.3533	–	1690.5
298.15 K, x1 = 0.3925	1112.26	–
298.15 K, x1 = 0.427	–	1674.4
298.15 K, x1 = 0.4502	1113.99	–
298.15 K, x1 = 0.4877	1114.87	–
298.15 K, x1 = 0.5004	1115.13	–
298.15 K, x1 = 0.5126	–	1658.3
298.15 K, x1 = 0.5739	1116.38	–
298.15 K, x1 = 0.58	1116.47	–
298.15 K, x1 = 0.5907	–	1645.7
298.15 K, x1 = 0.6465	1117.3	–
298.15 K, x1 = 0.651	1117.35	–
298.15 K, x1 = 0.7008	1117.83	–
298.15 K, x1 = 0.7471	1118.22	–
298.15 K, x1 = 0.7663	–	1627.2
298.15 K, x1 = 0.7677	1118.37	–
298.15 K, x1 = 0.82	1118.72	–
298.15 K, x1 = 0.8623	1118.97	–
298.15 K, x1 = 0.8792	1119.06	–
298.15 K, x1 = 0.8917	–	1620
298.15 K, x1 = 0.8975	1119.16	–
298.15 K, x1 = 0.9203	1119.28	–
298.15 K, x1 = 0.9514	1119.44	–
298.15 K, x1 = 0.9628	–	1615.6
298.15 K, x1 = 0.9692	1119.53	–
298.15 K, x1 = 1	1119.69	1613.5
303.15 K, x1 = 0.001004	–	1513.5
303.15 K, x1 = 0.002763	–	1520.4
303.15 K, x1 = 0.007937	–	1539.9
303.15 K, x1 = 0.0107	1007.53	–
303.15 K, x1 = 0.01123	–	1551.5
303.15 K, x1 = 0.01908	–	1577
303.15 K, x1 = 0.02047	1017.29	–
303.15 K, x1 = 0.0244	–	1592.6
303.15 K, x1 = 0.03263	–	1614.3
303.15 K, x1 = 0.03972	1033.87	–
303.15 K, x1 = 0.0428	–	1637.2
303.15 K, x1 = 0.05068	–	1652.5
303.15 K, x1 = 0.05793	–	1664.7
303.15 K, x1 = 0.06625	–	1676.8
303.15 K, x1 = 0.07426	–	1686.6
303.15 K, x1 = 0.08178	–	1694.5
303.15 K, x1 = 0.08886	–	1700.8
303.15 K, x1 = 0.0936	–	1704.5
303.15 K, x1 = 0.09852	–	1707.8
303.15 K, x1 = 0.102	–	1709.9
303.15 K, x1 = 0.1059	–	1712.1
303.15 K, x1 = 0.1101	–	1714.1
303.15 K, x1 = 0.1102	–	1714.2
303.15 K, x1 = 0.1147	–	1716
303.15 K, x1 = 0.1193	–	1717.7
303.15 K, x1 = 0.1248	–	1719.3
303.15 K, x1 = 0.1295	–	1720.5
303.15 K, x1 = 0.1308	–	1720.7
303.15 K, x1 = 0.1337	–	1721.3
303.15 K, x1 = 0.1393	–	1722.1
303.15 K, x1 = 0.1423	–	1722.4
303.15 K, x1 = 0.1457	–	1722.6
303.15 K, x1 = 0.1695	–	1722.1
303.15 K, x1 = 0.1857	–	1719.9
303.15 K, x1 = 0.2042	–	1716.3
303.15 K, x1 = 0.2252	–	1711.2
303.15 K, x1 = 0.2499	–	1704.6
303.15 K, x1 = 0.3027	–	1690
303.15 K, x1 = 0.3394	–	1680.6
303.15 K, x1 = 0.4052	–	1665.7
303.15 K, x1 = 0.4916	–	1649
303.15 K, x1 = 0.6074	–	1630
303.15 K, x1 = 0.7552	–	1614
303.15 K, x1 = 0.8683	–	1607.4
303.15 K, x1 = 0.9616	–	1601.7
303.15 K, x1 = 1	–	1599.1

— the NIST ThermoML archive (doi:10.1016/j.jct.2015.05.024)
